Assay results: ChEMBL document CHEMBL4382223, “Design, synthesis and biological evaluation of anthranilamide derivatives as potential factor Xa (fXa) inhibitors” (Bioorg Med Chem, 2018)
Active and inactive are the calls of the source. No cut-off for these calls is given here.

Assays:
[1] = target: Coagulation factor X (Homo sapiens, UniProt P00742); experiment: Inhibition of human factor Xa using S-2222 as substrate preincubated for 30 mins followed by substrate addition and measured for 20 mins
[2] = target: Prothrombin (Homo sapiens, UniProt P00734); experiment: Inhibition of human recombinant thrombin expressed in HEK293 cells using S-2238 as substrate preincubated for 30 mins followed by substrate addition and measured for 20 mins; format: single protein
[3] = tested on: Rattus norvegicus; experiment: Antithrombotic activity in rat model of FeCl3-induced venous thrombosis assessed as reduction thrombus weight at 1 mg/kg, po dosed 60 mins before thrombus formation relative to untreated control; format: functional; design: scale not given: the % may be the effect or the level left
[4] = tested on: Plasma; experiment: Anticoagulant activity in citrated rabbit plasma assessed as concentration required to double prothrombin time after 10 mins by coagulometric analysis; format: functional, Oryctolagus cuniculus
[5] = AUC (0 to infinity) in Sprague-Dawley rat at 1 mg/kg, iv by LC-MS analysis; format: ADME, organism-based; design: dose 1 mg/kg, time infinity, route intravenous; settings: in vivo
[6] = tested on: Rattus norvegicus; experiment: Antithrombotic activity in rat model of FeCl3-induced venous thrombosis assessed as reduction thrombus weight at 5 mg/kg, po dosed 60 mins before thrombus formation relative to untreated control; format: functional; design: scale not given: the % may be the effect or the level left
[7] = tested on: Rattus norvegicus; experiment: Antithrombotic activity in rat model of FeCl3-induced venous thrombosis assessed as reduction thrombus weight at 10 mg/kg, po dosed 60 mins before thrombus formation relative to untreated control; format: functional; design: scale not given: the % may be the effect or the level left
[8] = Cmax in Sprague-Dawley rat at 3 mg/kg, po by LC-MS analysis; format: ADME, organism-based; design: dose 3 mg/kg, route oral; settings: in vivo
[9] = Tmax in Sprague-Dawley rat at 3 mg/kg, po by LC-MS analysis; format: ADME, organism-based; settings: in vivo
[10] = tested on: Rattus norvegicus; experiment: Antithrombotic activity in rat model of arteriovenous shunt thrombosis assessed as reduction thrombus weight at 10 mg/kg, po dosed 90 mins before shunt was opened for 15 mins relative to untreated control; format: functional; design: scale not given: the % may be the effect or the level left
[11] = tested on: Rattus norvegicus; experiment: Antithrombotic activity in rat model of arteriovenous shunt thrombosis assessed as reduction thrombus weight at 5 mg/kg, po dosed 90 mins before shunt was opened for 15 mins relative to untreated control; format: functional; design: scale not given: the % may be the effect or the level left
[12] = AUC (0 to infinity) in Sprague-Dawley rat at 3 mg/kg, po by LC-MS analysis; format: ADME, organism-based; design: dose 3 mg/kg, route oral, time infinity; settings: in vivo
[13] = Oral bioavailability in Sprague-Dawley rat at 3 mg/kg by LC-MS analysis; format: ADME, organism-based; settings: in vivo
[14] = tested on: H9c2; experiment: Cytoprotective activity against hypoxia/reoxygenation-induced toxicity in rat H9c2 cells assessed as increase in cell viability at 1 to 10 uM by MTT assay; format: functional, cell-based
[15] = Toxicity in rat assessed as prolongation of tail bleeding dosed orally 60 mins before tails of anesthetized rat were transected and measured over 30 mins; format: organism-based; settings: in vivo, po, 0.5 h
[16] = Elimination half life in Sprague-Dawley rat at 1 mg/kg, iv by LC-MS analysis; format: ADME, organism-based; settings: in vivo
[17] = Plasma clearance in Sprague-Dawley rat at 1 mg/kg, iv by LC-MS analysis; format: ADME, organism-based; settings: in vivo
[18] = tested on: Plasma; experiment: Anticoagulant activity in citrated rabbit plasma assessed as concentration required to double activated partial thromboplastin time after 10 mins by coagulometric analysis; format: functional, Oryctolagus cuniculus
[19] = tested on: Rattus norvegicus; experiment: Antithrombotic activity in rat model of arteriovenous shunt thrombosis assessed as reduction thrombus weight at 1 mg/kg, po dosed 90 mins before shunt was opened for 15 mins relative to untreated control; format: functional; design: scale not given: the % may be the effect or the level left
[20] = Toxicity in rat assessed as prolongation of tail bleeding at 1 to 10 mg/kg, po dosed 60 mins before tails of anesthetized rat were transected and measured over 30 mins; format: organism-based; settings: in vivo, 0.5 h
[21] = Elimination half life in Sprague-Dawley rat at 3 mg/kg, po by LC-MS analysis; format: ADME, organism-based; settings: in vivo, read-out: beta t1/2 (converted)
[22] = Volume of distribution at steady state in Sprague-Dawley rat at 1 mg/kg, iv by LC-MS analysis; format: ADME, organism-based; settings: in vivo
[23] = target: Coagulation factor IX (Homo sapiens, UniProt P00740); experiment: Inhibition of human factor 9a preincubated for 30 mins followed by substrate addition and measured for 20 mins
[24] = organism: Homo sapiens; experiment: Selectivity ratio of IC50 for human factor 7a to IC50 for human factor Xa
[25] = organism: Homo sapiens; experiment: Selectivity ratio of IC50 for human recombinant thrombin expressed in HEK293 cells to IC50 for human factor Xa; format: cell-based
[26] = target: T1, Coagulation factor VII (Homo sapiens, UniProt P08709); experiment: Inhibition of human factor 7a preincubated for 30 mins followed by substrate addition and measured for 20 mins
T1 sequence (P08709 whole entry): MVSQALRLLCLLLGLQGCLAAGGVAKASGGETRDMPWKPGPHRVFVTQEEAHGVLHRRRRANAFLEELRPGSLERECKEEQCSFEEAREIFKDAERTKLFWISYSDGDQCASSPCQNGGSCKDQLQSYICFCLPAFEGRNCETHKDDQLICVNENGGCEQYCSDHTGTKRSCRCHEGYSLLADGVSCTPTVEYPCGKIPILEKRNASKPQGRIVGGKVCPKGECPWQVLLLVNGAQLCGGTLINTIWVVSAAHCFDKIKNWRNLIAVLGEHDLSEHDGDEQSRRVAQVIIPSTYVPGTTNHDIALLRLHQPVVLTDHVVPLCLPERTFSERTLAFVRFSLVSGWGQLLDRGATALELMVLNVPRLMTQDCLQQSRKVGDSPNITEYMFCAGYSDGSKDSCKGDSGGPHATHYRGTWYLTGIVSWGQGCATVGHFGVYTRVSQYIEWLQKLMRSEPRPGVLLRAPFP

[27] = target: Trypsin (Homo sapiens, UniProt P07477+P07478+P35030); experiment: Inhibition of human trypsin preincubated for 30 mins followed by substrate addition and measured for 20 mins; format: protein assay
[28] = organism: Homo sapiens; experiment: Selectivity ratio of IC50 for human factor 9a to IC50 for human factor Xa
[29] = organism: Homo sapiens; experiment: Selectivity ratio of IC50 for human trypsin to IC50 for human factor Xa
[30] = tested on: Rattus norvegicus; experiment: Antithrombotic activity in rat model of arteriovenous shunt thrombosis dosed orally 90 mins before shunt was opened for 15 mins; format: functional, organism-based
[31] = tested on: Rattus norvegicus; experiment: Antithrombotic activity in rat model of FeCl3-induced venous thrombosis dosed orally 60 mins before thrombus formation; format: functional, organism-based

Coagulation factor IX, sequence (P00740 47-191 limits assumed): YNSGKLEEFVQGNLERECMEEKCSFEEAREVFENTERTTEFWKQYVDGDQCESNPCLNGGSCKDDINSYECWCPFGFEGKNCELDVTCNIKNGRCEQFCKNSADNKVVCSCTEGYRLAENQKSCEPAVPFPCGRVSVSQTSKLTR
Coagulation factor IX, sequence (P00740 227-461 limits assumed): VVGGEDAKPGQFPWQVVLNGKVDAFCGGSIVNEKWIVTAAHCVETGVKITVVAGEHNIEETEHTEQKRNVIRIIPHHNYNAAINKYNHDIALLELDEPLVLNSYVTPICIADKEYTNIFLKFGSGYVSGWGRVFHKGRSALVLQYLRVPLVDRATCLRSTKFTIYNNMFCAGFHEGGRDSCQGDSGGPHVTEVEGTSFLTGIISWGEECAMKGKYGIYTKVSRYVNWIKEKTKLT
Coagulation factor X, sequence (P00742 41-179 limits assumed): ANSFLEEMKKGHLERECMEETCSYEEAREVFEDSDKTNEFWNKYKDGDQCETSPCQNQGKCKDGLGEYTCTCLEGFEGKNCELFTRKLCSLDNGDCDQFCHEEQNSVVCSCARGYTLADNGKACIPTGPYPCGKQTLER
Coagulation factor X, sequence (P00742 235-488 limits assumed): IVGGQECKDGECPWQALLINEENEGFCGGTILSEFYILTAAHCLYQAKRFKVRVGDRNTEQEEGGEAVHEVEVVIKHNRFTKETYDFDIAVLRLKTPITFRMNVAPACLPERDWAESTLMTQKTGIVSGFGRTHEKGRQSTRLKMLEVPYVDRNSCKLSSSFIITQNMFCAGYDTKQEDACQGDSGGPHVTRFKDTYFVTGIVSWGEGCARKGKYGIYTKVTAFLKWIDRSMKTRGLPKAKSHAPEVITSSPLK

## COc1ccc(NC(=O)c2nc3c(s2)CN(C)CC3)c(C(=O)Nc2ccc(Cl)s2)c1
[1]
  IC50: 1390 nM

## COc1ccc(NC(=O)c2cc(OC)ccc2NC(=O)c2ccc(N3CCOCC3=O)cc2)cc1
[1]
  IC50: 77 nM

## COc1ccc(NC(=O)c2ccc(C(=N)N(C)C)cc2)c(C(=O)Nc2ccc(Cl)cn2)c1 [BETRIXABAN]
[2]
  IC50: 18 µM
[3]
  Activity: 27%
[4]
  2PT: 2.4 µM
[5]
  AUC: 1832 ng·h/mL
[6]
  Activity: 38%
[7]
  Activity: 59%
[8]
  Cmax: 146 ng/mL
[9]
  Tmax: 2.6 h
[10]
  Activity: 61%
[11]
  Activity: 43%
[12]
  AUC: 571 ng·h/mL
[13]
  F: 30.2%
[14]
  Activity: inactive
[15]
  Activity: Dose-dependent effect
[16]
  beta t1/2: 7.8 h
[17]
  CL: 1.36 L/h/kg
[18]
  2aPTT: 1.1 µM
[19]
  Activity: 24%
[20]
  Activity: Toxic
[21]
  half-life: 516 min
[22]
  Vdss: 0.191 L/kg

## COc1ccc(NC(=O)c2ccc(-n3ccccc3=O)cc2)c(C(=O)Nc2ccc(Cl)cc2)c1
[1]
  IC50: 179 nM

## C#Cc1ccc(NC(=O)c2cc(OC)ccc2NC(=O)c2nc3c(s2)CN(C)CC3)cc1
[1]
  IC50: 20 nM

## COc1ccc(NC(=O)c2cc(OC)ccc2NC(=O)c2ccc(N3CCCCC3=O)cc2)cc1
[1]
  IC50: 513 nM

## COc1ccc(NC(=O)c2ccc(N3CCCC3=O)cc2)c(C(=O)Nc2ccc(Cl)cc2)c1
[1]
  IC50: 653 nM

## COc1ccc(NC(=O)c2ccc(N3CCCCC3=O)cc2)c(C(=O)Nc2ccc(Cl)cc2)c1
[1]
  IC50: 246 nM

## O=C(NC[C@H]1CN(c2ccc(N3CCOCC3=O)cc2)C(=O)O1)c1ccc(Cl)s1
[14]
  Activity: Active

## COc1ccc(NC(=O)c2ccc(N3CCCCC3=O)cc2)c(C(=O)Nc2ccc(C(C)(C)C)cc2)c1
[1]
  IC50: 272 nM

## COc1ccc(NC(=O)c2ccc(N3CCOCC3=O)cc2)c(C(=O)Nc2ccc(C(C)(C)C)cc2)c1
[1]
  IC50: 2090 nM

## COc1ccc(NC(=O)c2ccc(N3CCCCC3=O)cc2)c(C(=O)Nc2ccccc2OC)c1
[1]
  IC50: 3190 nM

## COc1ccc(NC(=O)c2nc3c(s2)CN(C)CC3)c(C(=O)Nc2ccc(F)cn2)c1
[1]
  IC50: 24 nM

## COc1ccc(NC(=O)c2nc3c(s2)CN(C)CC3)c(C(=O)Nc2ccc(Cl)cc2)c1
[23]
  IC50: 26 µM
[2]
  IC50: 7.1 µM
[24]
  Ratio IC50: > 1000
[4]
  2PT: 1.3 µM
[25]
  Ratio IC50: > 1000
[26]
  IC50: 4.7 µM
[27]
  IC50: 18 µM
[28]
  Ratio IC50: > 1000
[1]
  IC50: 4.8 nM
[18]
  2aPTT: 0.8 µM
[29]
  Ratio IC50: > 1000

## COc1cccc(NC(=O)c2cc(OC)ccc2NC(=O)c2nc3c(s2)CN(C)CC3)c1
[1]
  IC50: 981 nM

## COc1ccc(NC(=O)c2ccc(N3CCOCC3=O)cc2)c(C(=O)Nc2ccc(Cl)cc2)c1
[1]
  IC50: 18 nM

## COc1ccc(NC(=O)c2nc3c(s2)CN(C)CC3)c(C(=O)Nc2ccc(C)cc2)c1
[1]
  IC50: 30 nM

## COc1ccc(NC(=O)c2cc(OC)ccc2NC(=O)c2nc3c(s2)CN(C)CC3)cc1
[1]
  IC50: 234 nM

## COc1ccc(NC(=O)c2ccc(N3CCCCC3=O)cc2)c(C(=O)Nc2cccc(F)c2)c1
[1]
  IC50: 45 nM

## COc1ccc(NC(=O)c2ccc(N3CCOCC3=O)cc2)c(C(=O)Nc2ccccc2OC)c1
[1]
  IC50: 1540 nM

## COc1ccc(NC(=O)c2nc3c(s2)CN(C)CC3)c(C(=O)Nc2ccc(Cl)cn2)c1
[23]
  IC50: 36 µM
[2]
  IC50: 4.2 µM
[30]
  Activity: Dose-dependent effect
[3]
  Activity: 23%
[24]
  Ratio IC50: > 1000
[4]
  2PT: 0.8 µM
[5]
  AUC: 2258 ng·h/mL
[6]
  Activity: 36%
[25]
  Ratio IC50: > 1000
[26]
  IC50: 12 µM
[7]
  Activity: 54%
[8]
  Cmax: 221 ng/mL
[9]
  Tmax: 3.2 h
[10]
  Activity: 67%
[11]
  Activity: 50%
[27]
  IC50: 9.1 µM
[12]
  AUC: 1160 ng·h/mL
[28]
  Ratio IC50: > 1000
[13]
  F: 51.3%
[14]
  Activity: Active
[15]
  Activity: Dose-dependent effect
[31]
  Activity: Dose-dependent effect
[16]
  beta t1/2: 8.8 h
[17]
  CL: 0.92 L/h/kg
[1]
  IC50: 3.5 nM
[18]
  2aPTT: 0.5 µM
[19]
  Activity: 30%
[20]
  Activity: Toxic
[29]
  Ratio IC50: > 1000
[21]
  half-life: 576 min
[22]
  Vdss: 0.201 L/kg

## COc1ccc(NC(=O)c2ccc(N3CCCCC3=O)cc2)c(C(=O)Nc2ccc(F)cc2)c1
[1]
  IC50: 1080 nM

## COc1ccc(NC(=O)c2nc3c(s2)CN(C)CC3)c(C(=O)Nc2cccc(Cl)c2)c1
[1]
  IC50: 315 nM

## COc1ccc(NC(=O)c2nc3c(s2)CN(C)CC3)c(C(=O)Nc2ccc(C)cn2)c1
[23]
  IC50: 42 µM
[2]
  IC50: 32 µM
[24]
  Ratio IC50: > 1000
[4]
  2PT: 5.6 µM
[25]
  Ratio IC50: > 1000
[26]
  IC50: 11 µM
[27]
  IC50: 54 µM
[28]
  Ratio IC50: > 1000
[1]
  IC50: 10 nM
[18]
  2aPTT: 2.2 µM
[29]
  Ratio IC50: > 1000
